PMC11189555, “Aryl amino acetamides prevent Plasmodium falciparum ring development via targeting the lipid-transfer protein PfSTART1” (Nature Communications, 2024)

System: ring-stage parasites
Test: Parasite reduction ratio assay
Format: cell-based, Plasmodium falciparum
Procedure: Parasite reduction ratio assay. This was performed as previously described 9,10.
Briefly, asynchronous ring -stage parasites at 0.5% parasitemia and 2% haematocrit were exposed to compounds at 10 x EC50 of growth for five days with daily drug renewal. After each 24 h, a well from each treatment group was taken and washed three times in complete RPMI and final volume adjusted to 2% haematocrit. The washed culture was then aliquoted into a 96 well U-bottom plate and a 1:3 serial dilution into fresh uninfected RBCs was performed with four technical replicates for each time point. Plates were maintained in normal culturing conditions: media was replaced, and fresh RBCs given 1-2 times a week for three weeks, after which parasite growth was measured via lactate dehydrogenase assays. The number of viable parasites was calculated using the formula xn-1 +1, where x is the dilution factor and n is the number of wells that contain parasite growth. The viable parasite value was then expressed in log units and parasite reduction ratio was calculated as a decrease in […]

CC(C)(Nc1ccc(Cl)c(S(=O)(=O)N2CCOCC2)c1)C(=O)Nc1ccc(F)c(Cl)c1 [W-991]
lag phases (60 nM W-991, lag phases 0-24 h, 48-96 h): more than 24 h | viable parasites after treatment (10 x EC50 (60 nM W-991) for up to 5 days, then 21 days culture): a proportion of parasites remained after a treatment period of 5 days | killing profile (10xEC50: 75 nM CQ, 60 nM W-991): slow | PRR calculations: log viability at Hours 24 (Replicate 1, 24 Hours): 4.771 | PRR calculations: log viability at Hours 72 (Replicate 1, 72 Hours): 3.34 | PRR (Replicate 1, PRR calculations): 1.431 | log(parasite viability) +1 (Replicate 1, T=1): 4.771 | Parasite viability (Replicate 1, T=1, 1:3 dilution): 59049 | log(parasite viability) +1 (Replicate 1, T=2): 3.34 | Parasite viability (Replicate 1, T=2, 1:3 dilution): 2187 | log(parasite viability) +1 (Replicate 1, T=3): 3.34 | Parasite viability (Replicate 1, T=3, 1:3 dilution): 2187 | log(parasite viability) +1 (Replicate 1, T=4): 3.34 | Parasite viability (Replicate 1, T=4, 1:3 dilution): 2187 | log(parasite viability) +1 (Replicate 1, T=5): 2.863 | Parasite viability (Replicate 1, T=5, 1:3 dilution): 729 | log(parasite viability) +1 used in PRR calculations (Replicate 2, Hours 72): 3.34 | log(parasite viability) +1 used in PRR calculations (Replicate 2, Hours 120): 1.914 | PRR (Replicate 2, PRR calculations): 1.426 | Parasite viability +1 (Replicate 2, T=1): 177148 | log(parasite viability) +1 (Replicate 2, T=1): 5.248 | Parasite viability (Replicate 2, T=1, 1:3 dilution): 177147 | Parasite viability +1 (Replicate 2, T=2): 2188 | log(parasite viability) +1 (Replicate 2, T=2): 3.34 | Parasite viability (Replicate 2, T=2, 1:3 dilution): 2187 | Parasite viability +1 (Replicate 2, T=3): 2188 | log(parasite viability) +1 (Replicate 2, T=3): 3.34 | Parasite viability (Replicate 2, T=3, 1:3 dilution): 2187 | Parasite viability +1 (Replicate 2, T=4): 2188 | log(parasite viability) +1 (Replicate 2, T=4): 3.34 | Parasite viability (Replicate 2, T=4, 1:3 dilution): 2187 | Parasite viability +1 (Replicate 2, T=5): 82 | log(parasite viability) +1 (Replicate 2, T=5): 1.914 | Parasite viability (Replicate 2, T=5, 1:3 dilution): 81 | Parasite viability (1:3 dilution) (replicate 3, T=1): 177147 | log(parasite viability) +1 (replicate 3, T=1): 5.248 | Parasite viability (1:3 dilution) (replicate 3, T=2): 2187 | log(parasite viability) +1 (replicate 3, T=2 (48 hours in PRR calculations)): 3.34 | Parasite viability (1:3 dilution) (replicate 3, T=3): 729 | log(parasite viability) +1 (replicate 3, T=3 (72 hours in PRR calculations)): 2.863 | Parasite viability (1:3 dilution) (replicate 3, T=4): 19683 | log(parasite viability) +1 (replicate 3, T=4): 4.294 | Parasite viability (1:3 dilution) (replicate 3, T=5): 81 | log(parasite viability) +1 (replicate 3, T=5 (120 hours in PRR calculations)): 1.914 | PRR (replicate 3, difference of log viability over 48 h (CQ 0-48 hours, W991 72-120 hours)): 0.9495
